What all share (assay): combination Emax (second highest fraction inhibited in the dose matrix, 72 h); higher = more inhibition; extreme values may be limits of the assay
One assay relates to AGS (Gastric Carcinoma). The method in brief: (§1)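 Cell lines grown in DMEM/F12 or RPMI with 10% FBS were plated in 1536-well plates and held 24 hours at 37°C, 5% CO2 before 72 hours of exposure to two-drug dose matrices, with DMSO typically at 0.2%. CellTiter-Glo 2.0 luminescence gave viability, which was converted to inhibition. Vehicle wells were set to 0 and blank wells to 1. Combination Emax is the second-highest inhibition in the matrix, and Bliss excess is the observed combination effect minus the expected EA + EB − EA·EB, where EA and EB are the single-agent effects.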

Assay [1] concerns CCRF-CEM (T-Lymphoblastic Leukemia). Put shortly: as §1
Assay [2] deals with CaR-1 (Colorectal Carcinoma). The method in brief:
as §1

Assay [3] has as its system DEL (T-Cell Non-Hodgkin's Lymphoma). Put shortly: as §1
For assay [4], the system named is Daoy (Other Solid Carcinomas). The method in brief: as §1
The next assay concerns ES4 (Ewing's Sarcoma). The method in brief: as §1
Assay [5] relates to HCC-78 (Lung Adenocarcinoma). The method in brief: as §1
For assay [6], the system named is HO-1-N-1 (Oral Cavity Carcinoma). Put shortly: as §1
The subject of assay [7] is HT-1376 (Bladder Carcinoma). The method in brief: as §1
For assay [8], the system named is HuP-T4 (Pancreatic Carcinoma). The method in brief: as §1
The test system of assay [9] is LB831-BLC (Bladder Carcinoma). The method in brief: as §1
Assay [10] relates to MDA-MB-361 (Breast Carcinoma). Put shortly: as §1
Assay [11] concerns MFE-296 (Endometrial Carcinoma). The method in brief: as §1
Assay [12] has as its system NCI-H2085 (Non-Small Cell Lung Carcinoma). The method in brief:
as §1

In assay [13] the test system is NCI-H82 (Small Cell Lung Carcinoma). The method in brief: as §1
Assay [14] deals with SNU-5 (Gastric Carcinoma). The method in brief: as §1
Assay [15] concerns TCCSUP (Bladder Carcinoma). The method in brief: as §1
The subject of assay [16] is TE-9 (Esophageal Squamous Cell Carcinoma). The method in brief:
as §1

Assay [17] relates to UM-UC-3 (Bladder Carcinoma). The method in brief:
as §1

On to `CCN(CCO)CCCOc1ccc2c(Nc3cc(CC(=O)Nc4cccc(F)c4)[nH]n3)ncnc2c1` [AZD2811] + C[C@@H]1COCCN1C2=NC(=NC(=C2)C3(CC3)[S@](=N)(=O)C)C4=C5C=CNC5=NC=C4 [AZD6738] (first compound max 1 µM, 7x7, partner max 10 µM), for which the “combination Emax” value stood at 0.605 in the assay with AGS (Gastric Carcinoma); 1 in assay [1]; 0.469 in [2]; 0.99 in assay [3]; 0.798 in assay [4]; 0.666 with ES4 (Ewing's Sarcoma). Further, the “combination Emax” value in assay [5] turned out to be 0.595; in [6], 0.858; in assay [7] it was 0.54; in assay [8], 0.424; in assay [9], 0.238; in assay [10] it was 0.815. The “combination Emax” value in assay [11] stood at 0.405; in [12] it was 0.844; in assay [13], 0.922; in assay [14], 0.907; in [15], 0.604; in [16], 0.278. The “combination Emax” value in assay [17] stood at 0.429.
`COc1cccc(OCCCN)c1-c1cc(Nc2cnc(C#N)cn2)n[nH]1` [Prexasertib] + O=C(c1cc(Cc2n[nH]c(=O)c3ccccc23)ccc1F)N1CCN(C(=O)C2CC2)CC1 [Olaparib] (first compound max 1 µM, 7x7, partner max 10 µM): the “combination Emax” value came out at 0.426 in the assay on AGS (Gastric Carcinoma); 1 in [1]; 0.638 in assay [2]; 1 in assay [3]; 0.983 in assay [4]; 0.887 with ES4 (Ewing's Sarcoma). Also, the “combination Emax” value stood at 0.718 in assay [5]; 0.938 in [6]; 0.479 in assay [7]; 0.851 in [8]; 0.448 in assay [9]; 0.919 in [10]. For the same compound, the “combination Emax” value in [11] worked out at 0.525; in assay [12] it was 0.587; in assay [13], 0.925; in assay [14], 0.968; in assay [15], 0.731; in assay [16] it was 0.567. For the same compound, the “combination Emax” value in [17] is 0.629.
In the case of `CN(C)CCCOc1ccc(-c2ccc3ncc4c(c3c2)n(C2CCOCC2)c(=O)n4C)cn1` [AZD0156] + C=CCn1c(=O)c2cnc(Nc3ccc(N4CCN(C)CC4)cc3)nc2n1-c1cccc(C(C)(C)O)n1 [AZD1775] (first compound max 1 µM, partner max 1 µM), the “combination Emax” value in the assay on AGS (Gastric Carcinoma) turned out to be 0.478; in [1], 1; in assay [2], 0.128; in assay [3], 1; in [4] it was 0.847; with ES4 (Ewing's Sarcoma), 0.438. For the same compound, the “combination Emax” value stood at 0.313 in [5]; 0.348 in assay [6]; 0.294 in assay [7]; 0.217 in assay [8]; 0.388 in [9]; 0.858 in [10]. Moreover, the “combination Emax” value in assay [11] was 0.258; in [12], 0.6; in [13], 0.901; in assay [14], 0.56; in assay [15], 0.356; in [16] it was 0.231. Moreover, in assay [17], the “combination Emax” value was found to be 0.264.
For `Cc1cc2ncnn2cc1Nc1ncc2c(n1)n(C1CCOCC1)c(=O)n2C` [AZD7648] + CN(C)CCCOc1ccc(-c2ccc3ncc4c(c3c2)n(C2CCOCC2)c(=O)n4C)cn1 [AZD0156] (first compound max 10 µM, 7x7, partner max 1 µM), the “combination Emax” value with AGS (Gastric Carcinoma) is 0.397; in assay [1], 0.521; in assay [2], 0.266; in assay [3] it was 0.412; in assay [4] it was 0.313; in the assay with ES4 (Ewing's Sarcoma) it was 0.0963. Also, the “combination Emax” value in [5] is 0.263; in assay [6], 0.3; in assay [7] it was 0.2; in assay [8], 0.261; in assay [9], 0.243; in [10], 0.565. For the same compound, the “combination Emax” value turned out to be 0.147 in [11]; 0.234 in assay [12]; 0.293 in assay [13]; 0.376 in [14]; 0.197 in [15]; 0.183 in assay [16]. Moreover, the “combination Emax” value in assay [17] was determined as 0.236.
On to `COc1cccc(OCCCN)c1-c1cc(Nc2cnc(C#N)cn2)n[nH]1` [Prexasertib] + C=CCn1c(=O)c2cnc(Nc3ccc(N4CCN(C)CC4)cc3)nc2n1-c1cccc(C(C)(C)O)n1 [AZD1775] (first compound max 1 µM, partner max 1 µM), for which the “combination Emax” value in the assay on AGS (Gastric Carcinoma) was found to be 0.901; in [1] it was 1; in [2] it was 0.797; in assay [3] it was 1; in assay [4] it was 0.985; in the assay with ES4 (Ewing's Sarcoma), 0.893. Moreover, the “combination Emax” value in assay [5] amounted to 0.793; in assay [6], 0.985; in assay [7], 0.422; in [8], 0.882; in [9], 0.836; in assay [10], 0.926. In addition, the “combination Emax” value in assay [11] came to 0.644; in [12], 0.94; in [13], 0.996; in assay [14] it was 0.969; in assay [15] it was 0.748; in assay [16] it was 0.86. In addition, the “combination Emax” value in assay [17] was found to be 0.807.
Turning to `Cc1cc2ncnn2cc1Nc1ncc2c(n1)n(C1CCOCC1)c(=O)n2C` [AZD7648] + C[C@@H]1COCCN1C2=NC(=NC(=C2)C3(CC3)[S@](=N)(=O)C)C4=C5C=CNC5=NC=C4 [AZD6738] (first compound max 10 µM, 7x7, partner max 10 µM), the “combination Emax” value in the assay with AGS (Gastric Carcinoma) was determined as 0.682; in assay [1] it was 0.997; in assay [2], 0.649; in assay [3], 0.977; in [4] it was 0.784; with ES4 (Ewing's Sarcoma), 0.686. Further, the “combination Emax” value in [5] is 0.635; in assay [6] it was 0.706; in assay [7], 0.546; in assay [8] it was 0.358; in assay [9], 0.3; in [10] it was 0.884. Also, the “combination Emax” value in assay [11] came to 0.33; in assay [12], 0.608; in assay [13], 0.899; in assay [14], 0.931; in assay [15], 0.569; in assay [16], 0.286. Moreover, the “combination Emax” value in [17] was 0.41.
Turning to `CS(=O)(=O)CCNCc1ccc(-c2ccc3ncnc(Nc4ccc(OCc5cccc(F)c5)c(Cl)c4)c3c2)o1` [Lapatinib] + NC1(c2ccc(-c3nc4ccn5c(=O)[nH]nc5c4cc3-c3ccccc3)cc2)CCC1 [MK-2206] (first compound max 10 µM, 7x7, partner max 10 µM), the “combination Emax” value was 0.892 in assay [1]; 0.779 in [2]; 0.264 in assay [5]; 0.963 in assay [6]; 0.177 in assay [7]; 0.39 in assay [9]. Besides, the “combination Emax” value in assay [11] came to 0.296; in [12] it was 0.587; in assay [13], 0.932; in [14] it was 0.387; in [16] it was 0.306; in assay [17], 0.253.
Turning to `CCc1c2c(nc3ccc(O)cc13)-c1cc3c(c(=O)n1C2)COC(=O)[C@]3(O)CC` [SN-38] + O=C(c1cc(Cc2n[nH]c(=O)c3ccccc23)ccc1F)N1CCN(C(=O)C2CC2)CC1 [Olaparib] (first compound max 0.3 µM, 7x7, partner max 10 µM), the “combination Emax” value in the assay on AGS (Gastric Carcinoma) turned out to be 0.884; in [1], 1; in assay [2], 0.912; in assay [3], 1; in assay [4], 0.971; with ES4 (Ewing's Sarcoma), 0.767. Further, the “combination Emax” value in assay [5] was 0.898; in assay [6], 1; in [7], 0.0829; in [8], 0.948; in assay [9], 0.85; in assay [11] it was 0.595. Also, the “combination Emax” value in assay [12] turned out to be 0.132; in assay [13], 0.787; in [15], 0.665; in assay [16], 0.458; in [17] it was 0.985.

The values are drawn from the supplement of paper PMC11061612.
